A short description of this data set: Plasma stability (UPLC-MS/MS recovery). In kind it is in vitro ADME. To be noted: 37 °C, rat plasma diluted 1:1 with PBS pH 7.4, read-out: Compound recovery after incubation with rat plasma. On the procedure:
To investigate the potential plasma instability of the carbamoyl-N-arylimine-urea subunit, designed as a new peptide mimetic framework, compound 10e (LASSBio-1736) was selected to investigate its plasma stability,[21,22] previously to the evaluation of its in vivo leishmanicidal effect. Quantitation of 10e (LASSBio-1736), benzocaine standard (positive control; it means a substrate drug for plasma hydrolysis) and ketoconazole (internal standard) was determined by UPLC-MS/MS, after incubation of the compounds at 0, 30, 60, 120 and 240 min with rat plasma, and measuring the peak areas in three different experiments.
For analysis of plasma stability, 5 μL (250 ng mL^−1) of a concentrated solution of 10e (LASSBio-1736) or the positive control benzocaine (stock concentration = 10 000 ng mL^−1 solubilized in DMSO) was added in 195 μL of rat plasma solution (1 : 1) diluted with PBS (pH 7.4). […] The supernatant (400 μL) were placed in 2 mL vials, and analyzed by UPLC-MS/MS. […]
Detection in single reaction monitoring (SRM) mode was used for determination of the LASSBio-1736 (10e) m/z 419.1 → 205.0, benzocaine m/z 166.1 → 137.9 and ketoconazole (IS) 532.1 → 490.3, with a tolerance of mass deviation of 6 ppm, operating in positive ionization mode. The data were acquired using TraceFinder 3.2. software (Thermo Fisher Scientific, Waltham, USA), and analyzed using GraphPad Prism 5 program.

Results on one compound are retold here after paper PMC9050848, “Carbamoyl-N-aryl-imine-urea: a new framework to obtain a putative leishmanicidal drug-candidate” (RSC Advances, 2020).

`CCOC(=O)c1ccc(N)cc1` [benzocaine, reference compound]: the recovery at 4 h, 250 ng/mL came out at 38%.
